One assay concerns Na^+, K^+ -ATPase. The conditions noted are these: reported in literature / other filings; cited from earlier work.
For assay [1] the following is noted: reported in literature; cited from earlier work.
Assay [2] deals with Na^+, K^+ -ATPase receptor. Put plainly: displacement of the specific ^3 H-ouabain binding from the Na^+, K^+ -ATPase receptor. The conditions noted are these: ^3 H-ouabain displacement, purified Na^+.
Description: a) displacement of the specific ^3 H-ouabain binding from the Na^+, K^+ -ATPase receptor purified according to Jorghensen (Jorghensen P., BBA, 1974, 356, 36) and Erdmann (Erdmann E. et al., Arzneim. Forsh., 1984, 34, 1314);
The target of assay [3] is T1, purified Na^+, K^+ -ATPase (Canis lupus familiaris, UniProt P50997).
T1 construct: from tissue
Put plainly: inhibition of the activity of the purified Na^+, K^+ -ATPase (hydrolysis of ^32 P-ATP). It counts as biochemical. From the text: To test the affinity for the receptor site of the Na^+, K^+ -ATPase and the inhibition of the activity of the enzyme, the following tests were used:
b) inhibition of the activity of the purified Na^+, K^+ -ATPase measured as % of hydrolysis of ^32 P-ATP in the presence and in the absence of the tested compound (Doucet A. et al., Am. J. Physiol., 1986, 251, F851)

Assay [4] deals with spontaneous hypertensive rats (MHS). Put plainly: effect of 5 week-treatment in spontaneous hypertensive rats (MHS) on the development of hypertension (SBP and HR, tail cuff method). It counts as in vivo, rat. The conditions noted are these: 5 weeks, in Methocel 0.5% w/v; for SBP: controls 170 +/- 5.5; for HR: controls 378 +/- 12.0. As for the experimental part: Systolic blood pressure (SBP) and hear rate (HR) were measured, by the tail cuff method, in young prehypertensive male rats (MHS or SHR) strains before the development of hypertension (4 weeks of age) for recording the basal values of SBP. Groups of 7 rats were formed and subdivided in control and treated groups.
The compound, suspended in Methocel 0.5% (w/v), was orally given daily for at least 5 weeks to the treated groups. The control group received only Methocel.
SBP and HR were measured weekly 6 and 24 hrs after treatment. After 5 weeks of treatment, when hypertension was fully developed in the control group (9 weeks of age), washout was started for at least one week, to verify whether the treatment maintained blood pressure low or reestablished the basal values.
(Takeda K. et al., Japan J. Pharmacol., 1979, 29, 171; Takeda K. et al. Japan J. Pharmacol., 1982, 32, 283; Richer C. et al. Eur. J. Pharmacol, 1978, 47,393).

Broadly, the IC50 is the midpoint of a concentration-inhibition curve.

Read-outs that look alike come from different tables or passages of the source.

For `C[C@]12CC[C@H](O)C[C@H]1CC[C@@H]1[C@@H]2CC[C@]2(C)C(=NNC(=N)N)CC[C@]12O` [17-guanidinoimino-5β-androstane-3β,14β-diol], in the assay with Na^+, K^+ -ATPase, the “inhibition of Na^+, K^+ -ATPase” value is “weak inhibitors of Na^+, K^+ -ATPase”.

As to `C[C@]12CC[C@H](O)C[C@H]1CC[C@@H]1[C@@H]2CC[C@]2(C)[C@@H](C=NNC(=N)N)CC[C@]12O` [17β-guanidinoiminomethyl-5β-androstane-3,β,14β-diol], the “inhibition of Na^+, K^+ -ATPase” value in the assay on Na^+, K^+ -ATPase is on record as “weak inhibitors of Na^+, K^+ -ATPase”. Further, the positive inotropic activity entry in assay [1] is “weak positive inotropic agents”.

Turning to `C[C@]12CC[C@H](O)C[C@H]1CC[C@@H]1[C@@H]2CC[C@]2(C)[C@@H](CNOCCN)CC[C@]12O` [Comp. I-aj, 17β-(2-Aminoethoxyamino)methyl-5β-androstane-3β,14β-diol], the “Binding ^3 H-Ouab. Displacement (-log IC50)” value in assay [2] turned out to be 7.2. Besides, inhibition in assay [3] was half-maximal at 1 µM (IC50). In assay [4] (0.1 mg/Kg/os daily), the SBP is 150 +/- 4.1 mm Hg and the HR was 372 +/- 11.7 beats/min.

In the case of `CN(C)CCONC[C@H]1CC[C@]2(O)[C@@H]3CC[C@@H]4C[C@@H](O)CC[C@]4(C)[C@H]3CC[C@]12C` [Comp. I-am, 17β-(2-Dimethylaminoethoxyamino)methyl-5β-androstane-3β,14β-diol], the “Binding ^3 H-Ouab. Displacement (-log IC50)” value in assay [2] worked out at 6.1. In addition, the concentration for half-maximal inhibition (IC50) in assay [3] (hydrolysis of ^32 P-ATP, purified Na^+, K^+ -ATPase, read-out: Inhibitory Activity (-log IC50) (converted)) is 50.1 µM. Further, the values for the SBP in assay [4] (1 mg/Kg/os daily) and in assay [4] (10 mg/Kg/os daily) were 152 +/- 5.3 mm Hg and 149 +/- 4.5 mm Hg, respectively. Moreover, the HR in assay [4] (1 mg/Kg/os daily) was 365 +/- 10.1 beats/min; in assay [4] (10 mg/Kg/os daily) it was 370 +/- 14.7 beats/min.

With `CN(C)CCONC[C@H]1CC[C@]2(O)[C@@H]3CC[C@@H]4C[C@@H](OCCCN)CC[C@]4(C)[C@H]3CC[C@]12C` [Comp. I-bb, 3β-(3-Aminopropoxy)-17β-(2-dimethylaminoethoxyamino)methyl-5β-androstane-14β-ol], the “Binding ^3 H-Ouab. Displacement (-log IC50)” value in assay [2] was 6.3. This compound also gave an IC50 in assay [3] of 31.6 µM. In assay [4] (1 mg/Kg/os daily), the SBP was 153 +/- 6.2 mm Hg and the HR is on record as 367 +/- 14.3 beats/min. In addition, in assay [4] (10 mg/Kg/os daily), the SBP is listed as 150 +/- 4.2 mm Hg and the HR is 375 +/- 12.1 beats/min.

The values are drawn from patent US5599806A, “Hydrazino and hydroxyamino-14-β-hydroxyandrostane derivatives active on the cardiovascular system processes for their preparation and pharmaceutical compositions containing same” (Sigma-Tau Industrie Farmaceutiche Riunite S.p.A., priority 1994, dated 1997).
